Consider 20 molecules from paper PMC2862773 (International journal of biological macromolecules, 2010).

The structures appear in SMILES notation. Entries after “also recorded” stand apart in the source; their conditions may differ.

Assay [1] has as its system rat brain and liver mitochondrial F1Fo ATP synthase. The following applies: cited from earlier work.
The subject of assay [2] is E. coli enzyme mutants αR283A/Q, αE284A/Q, βS263A/Q, γT273A/Q, γQ274A/K, γT277A/Q, γE278A/Q. Description: Inhibition of polyphenol binding pocket mutants of E. coli enzyme. The format is biochemical, Escherichia coli. The following applies: unpublished results of the authors.
Assay [3] has as its system androgen-responsive human prostate carcinoma cells (LNCaP). The following applies: concentrations of up to 50μmol/L/day; cited from earlier work.
For assay [4], the system named is normal human prostate cells. Particulars: at similar concentrations (up to 50μmol/L/day); cited from earlier work.
Assay [5] addresses E. coli ATP synthase (purified F1 or membrane bound F1Fo) (Escherichia coli, UniProt P0ABA6+P0ABB0+P0ABB4). The format is biochemical. The following applies: for Residual ATPase Activity (%): left over ATPase activity at maximal inhibition.
For assay [6], the system named is E. coli strain pBWU13.4/DK8. As to the kind of experiment: Growth yield in limiting glucose medium in presence of bioflavonoid compounds. The format is cell-based, Escherichia coli. Particulars: OD595 after ~20 hours growth at 37 °C; control 100, null 45.
In assay [7] the test system is cultured human lymphoblastoid and other mammalian cells. Particulars: not in ρ° cells; cited from earlier work.
Assay [8] has as its target E. coli ATP synthase (purified F1 or membrane bound enzyme) (Escherichia coli, UniProt P0ABA6+P0ABB0+P0ABB4). Description: Reversal of ATPase inhibition by dilution or centrifuge columns. The format is biochemical. Particulars: dilution to non-inhibitory concentration or twice through centrifuge columns.
Assay [9] has as its system E. coli ATP synthase. The following applies: cited from earlier work.
Where [10] appears, read: mitochondrial F1Fo ATP synthase.
Where [11] appears, read: purified F1 or membrane bound F1Fo.

In the case of `O=c1c(-c2ccc(O)cc2)coc2cc(O[C@@H]3O[C@H](CO)[C@@H](O)[C@H](O)[C@H]3O)cc(O)c12` [genistin], the “Inhibition of ATPase activity” value in assay [1] (up to 140 μM) is “did not inhibit”.

Consider `Oc1ccc(/C=C/c2cc(O)cc(O)c2)cc1` [resveratrol], for which, in assay [2], the “Inhibition of mutant enzymes” value was “loss of inhibition”. In assay [1] (setting [10]), the Time to inhibition was 1 to 2 min. For the same molecule, the Effect on apoptosis entry in assay [3] is reported as “stimulation of apoptosis”. The “Effect on rate of cell death” value in assay [4] is recorded as “no effect”.

Turning to `O=c1c(O)c(-c2ccccc2)oc2cc(O)cc(O)c12` [Galangin], the “Extent of inhibition of ATPase activity, in words” value (“Extent of inhibition … in words” for short) in assay [5] (setting [11]) was “insignificant; also recorded: no inhibition”. Further, the “Growth yield in limiting glucose (%)” value in assay [6] was 93%.

Regarding `O=c1c(-c2ccc(O)cc2)coc2cc(O)ccc12` [Daidzein], the “Extent of inhibition … in words” value in assay [5] (setting [11]) is listed as “insignificant”. In assay [6], the “Growth yield in limiting glucose (%)” value is listed as 96%.

As to `O=c1c(O)c(-c2ccc(O)cc2O)oc2cc(O)cc(O)c12` [Morin hydrate], the “Residual ATPase Activity (%)” value in [5] (60 min preincubation) is on record as 0%. Moreover, the “Extent of inhibition … in words” value in assay [5] (setting [11]) was “complete inhibition”. Moreover, the “Growth yield in limiting glucose (%)” value in assay [6] amounted to 46%.

For `CC[C@H]1/C=C/C=C/C[C@@H](C)[C@H](O)[C@@](C)(O)C(=O)[C@@H](C)[C@H](O)[C@@H](C)C(=O)[C@@H](C)[C@H](O)[C@@H](C)/C=C/C(=O)O[C@@H]2[C@H](C)[C@H](CC1)O[C@]1(CC[C@H](C)[C@H](C[C@@H](C)O)O1)[C@H]2C` [Oligomycin], in [7], the “Time to apoptotic suicide response” value was 12 to 18 h.

For orientation: IC50 means the concentration at which inhibition is half-maximal. On to `O=c1cc(-c2ccc(O)cc2)oc2cc(O)cc(O)c12` [Apigenin], for which, in [5] (60 min preincubation), the “Residual ATPase Activity (%)” value was determined as 60%. For the same molecule, in assay [8], the Reversibility of inhibition result is “reversible”. Besides, the IC50 in assay [1] (setting [10]) is roughly 100 µM.

Take `O=c1cc(-c2ccccc2)oc2cc(O)c(O)c(O)c12` [Baicalein]: the “Residual ATPase Activity (%)” value in assay [5] (60 min preincubation) came out at 0%. Moreover, the “Extent of inhibition … in words” value in assay [5] (setting [11]) is recorded as “complete inhibition”. The “Growth yield in limiting glucose (%)” value in [6] is reported as 48%.

Regarding `Oc1cc(O)cc(/C=C/c2ccc(O)c(O)c2)c1` [piceatannol], the “Inhibition of mutant enzymes” value in assay [2] was “loss of inhibition”.

In the case of `NC12CC3CC(CC(C3)C1)C2` [Amantadin, reference compound], the “Residual ATPase Activity (%)” value in assay [5] (60 min preincubation) was determined as 0%. Further, in assay [5] (setting [11]), the “Extent of inhibition … in words” value is on record as “complete inhibition”. Moreover, the “Inhibition of ATPase activity (maximal extent)” value in assay [5] (purified F1 or membrane bound F1Fo, 60 min preincubation) is on record as ~ 100%. Moreover, the “Growth yield in limiting glucose (%)” value in assay [6] stood at 51%.

As to `COc1cc(C2Oc3cc([C@H]4Oc5cc(O)cc(O)c5C(=O)[C@@H]4O)ccc3OC2CO)ccc1O` (stereo partly drawn) [Silibinin], the “Residual ATPase Activity (%)” value in [5] (60 min preincubation) amounted to 0%. Also, the “Extent of inhibition … in words” value in assay [5] (setting [11]) is listed as “complete inhibition”. In assay [6], the “Growth yield in limiting glucose (%)” value is 47%.

As to `CC(N)C12CC3CC(CC(C3)C1)C2` (stereo not drawn) [Rimantadine, reference compound], in assay [5] (60 min preincubation), the “Residual ATPase Activity (%)” value is listed as 0%. In assay [5] (setting [11]), the “Extent of inhibition … in words” value is listed as “complete inhibition”. For the same molecule, the “Growth yield in limiting glucose (%)” value in [6] came to 52%.

On to `Oc1cc(O)c2c(c1)O[C@H](c1ccc(O)c(O)c1)[C@H](O)C2` [(−)-Epicatechin], for which the “Residual ATPase Activity (%)” value in [5] (60 min preincubation) is 0%. Moreover, the “Extent of inhibition … in words” value in assay [5] (setting [11]) is “complete inhibition”. In [6], the “Growth yield in limiting glucose (%)” value came to 53%.

Turning to `C[C@@H]1O[C@@H](OC[C@H]2O[C@@H](Oc3c(-c4ccc(O)c(O)c4)oc4cc(O)cc(O)c4c3=O)[C@H](O)[C@@H](O)[C@@H]2O)[C@H](O)[C@H](O)[C@H]1O` [Rutin hydrate], the “Growth yield in limiting glucose (%)” value in [6] was found to be 87%.

Regarding `O=c1c(O)c(-c2ccc(O)c(O)c2)oc2cc(O)cc(O)c12` [Quercetin], in assay [2], the “Inhibition of mutant enzymes” value is on record as “loss of inhibition”. The IC50 is roughly 33 µM in assay [9] (E. coli ATP synthase) and 55 to 65 µM in [1] (setting [10]). In [9] (binds non-covalently at the polyphenol binding site), the Reversibility of inhibition result is “reversible”. In addition, the “Inhibition of E. coli ATP synthase” value in [9] is given as ~ 80%.

With `COc1ccc([C@@H]2CC(=O)c3c(O)cc(O[C@@H]4O[C@H](CO[C@@H]5O[C@@H](C)[C@H](O)[C@@H](O)[C@H]5O)[C@@H](O)[C@H](O)[C@H]4O)cc3O2)cc1O` [Hesperidin], the “Residual ATPase Activity (%)” value in assay [5] (60 min preincubation) was 40%. For the same molecule, the “Extent of inhibition … in words” value in assay [5] (setting [11]) was “partial inhibition”. In addition, in assay [6], the “Growth yield in limiting glucose (%)” value was 76%.

Take `COc1ccc(-c2cc(=O)c3c(O)cc(O[C@@H]4O[C@H](CO[C@@H]5O[C@@H](C)[C@H](O)[C@@H](O)[C@H]5O)[C@@H](O)[C@H](O)[C@H]4O)cc3o2)cc1O` [Diosmin]: the “Extent of inhibition … in words” value in [5] (setting [11]) is reported as “partial inhibition”.

`O=c1cc(-c2ccccc2)oc2cc(O)cc(O)c12` [Chrysin]: the “Residual ATPase Activity (%)” value in [5] (60 min preincubation) was found to be 40%. For the same molecule, the “Growth yield in limiting glucose (%)” value in assay [6] stood at 73%.

With `O=c1cc(-c2ccc(O)c(O)c2)oc2cc(O)cc(O)c12` [Luteolin], the “Extent of inhibition … in words” value in assay [5] (setting [11]) is reported as “insignificant”. In addition, the “Growth yield in limiting glucose (%)” value in [6] came to 87%.

Turning to `O=c1c(-c2ccc(O)cc2)coc2cc(O)cc(O)c12` [Genistein], the “Growth yield in limiting glucose (%)” value in assay [6] amounted to 87%.
